Assay results reported in patent US7304073B2, “Method of treating myocardial ischemia-reperfusion injury using NF-kB inhibitors” (Wyeth, priority 2004, dated 2007).
“Also recorded” adds a separate entry of the source.

Tests used:
[1] = system: myocardial ischemia-reperfusion models; settings: cited from earlier work
[2] = system: Ovariectomized female New Zealand White rabbits; experiment: In vivo rabbit heart ischemia-reperfusion (left anterior descending coronary artery occlusion), infarct size
Protocol: Ovariectomized female New Zealand White rabbits were anesthetized with a mixture of xylazine (3 mg/kg) and ketamine (35 mg/kg) administered IM, followed by an IV injection of sodium pentobarbital (15 mg/kg). An endotracheal tube was inserted and animals were positive pressure ventilated with room air. A Millar catheter micro-tip pressure transducer was inserted through the left carotid artery and positioned above the aortic valves to monitor aortic blood pressure. A lead II electrocardiogram was monitored throughout the experiment. A left thoracotomy and pericardiotomy were performed. […] A silk suture was passed behind the left anterior descending coronary artery and secured against polyethylene tubing for 30 minutes (ischemic period). Regional myocardial ischemia was verified by cyanosis in the region of the occluded vessel and by ST-segment elevation like changes in the electrocardiogram. The hearts were then reperfused for 4 hours.
To determine infarct size the heart was removed, cannulated through the aorta and perfused with Krebs-Henseleit buffer followed by perfilsion with 1% triphenyltetrazolium chloride (TTC). The left anterior descending coronary artery was re-occluded with a suture and 0.25% Evans Blue was perfused through the heart. The heart was cut into transverse sections and the area of the left ventricle, area at risk and the infarct area were traced and analyzed using Adobe PhotoShop Software. The infarct size is expressed as a percentage of the area at risk.

[3] = system: Adult ovariectomized female Sprague Dawley rats; experiment: In vivo rat heart ischemia-reperfusion (left coronary artery occlusion), infarct size
Protocol: A rat in vivo model was used to evaluate effects of experimental compounds on ischemia-reperfusion in the left ventricle. Adult ovariectomized female Sprague Dawley rats (>6 weeks) were used. All experimental procedures were performed under general anesthesia with a combination of ketamine and xylazine. Rats were placed on a heating pad and ventilated using a rodent ventilator. The chest was clipped free of hair, disinfected with Betadine and rinsed with alcohol. A small incision was made through skin and underlying muscles between 4th and 5th ribs in the left chest. The ribs were gently spread and the heart was exposed. A surgical suture was placed under the left coronary artery. The artery was occluded by tightening the suture for 30 minutes to induce myocardial ischemia and then re-opened for the 2 hour reperfusion period. […] At the end of reperfusion, hearts were harvested, perfused with Evans Blue, sectioned and stained with 2,3,5-triphenyltetrazolium chloride. Each section was digitally imaged. Infarct size and area at risk were measured and statistically analyzed.

[4] = system: perfused isolated male rat hearts; experiment: Isolated rat heart ischemia-reperfusion (Langendorff perfusion)
Protocol: Male rats 3 months old were anesthetized with sodium-pentobarbital and hearts were removed and mounted on a Langendorff apparatus. In this paradigm isolated hearts were perfused through an aortic cannula with a modified Krebs-Henseleit buffer equilibrated with 95% O2 and 5% CO2 at a constant pressure of 58 mmHg. Hearts were maintained at 37° C. throughout the experiments and temperature was continuously monitored with an IT-18 thermocouple microprobe inserted into the left ventricle (PhysiTemp, Clifton, N.J.). Flow rate was monitored with a flow probe and small animal flow meter (T206) from Transonic Systems Incorporated, Ithaca, N.Y. Hearts were perfused for 5 minutes with no additions followed by perfusion with vehicle or test compound which were continuously perfused throughout the remaining steps of the experiments. After 20 minutes the hearts were exposed to 100 nM isoproterenol for 5 minutes followed by 15 minutes global ischemia which was achieved by turning off the perfusion pump. After ischemia, hearts were reperfused at a constant flow rate for 50 minutes. This flow rate was equivalent to the rate used before ischemia to maintain 58 mmHg.
To assess ischemic damage, the change in left ventricular diastolic pressure was continually monitored using a fluid filled latex balloon inserted into the left ventricle through the left atrium. The diastolic pressure was initially adjusted to 5 mmHg. The pressure signals were recorded with a Grass Polygraph.
The release of creatine kinase (CK) enzyme activity from the hearts was also measured as a marker of cardiac damage. Fractions of perfusate were collected before ischemia and every 5 minutes during reperfusion. CK enzyme activity released from the hearts was determined in the perfusate fractions using CK reagent as recommended by the supplier (Sigma Diagnostics, St. Louis, Mo.).

uterus or breast = experiment: Activity in the uterus or breast; settings: in contrast to the known effects of 17β-estradiol
[5] = 1 uM, isolated rat heart, following ischemia-reperfusion

## C[C@]12CC[C@@H]3c4ccc(O)cc4CC[C@H]3[C@@H]1CC[C@@H]2O [17β-estradiol]
[1]
  protection in similar myocardial ischemia-reperfusion models: protective

## COc1cc(OC)cc(N2CCN(C(=O)[C@](C)(C#N)[C@H](c3ccccc3OC)c3cccc4ccccc34)CC2)c1 [Example 4, (S)-3-[4-(3,5-dimethoxyphenyl)piperazin-1-yl]-2-[(S)-(2-methoxyphenyl)(1-naphthyl)methyl]-2-methyl-3-oxopropanenitrile]
other
  melting point: 186 to 188 °C

## CC1c2cc(F)ccc2-c2ccccc2N1S(=O)(=O)c1ccc(O)cc1 (stereo not shown) [Example 3, 4-[(8-Fluoro-6-methylphenanthridin-5(6H)-yl)sulfonyl]phenol]
other
  melting point: 188 °C
[2]; 1 mg/kg IV 30 minutes before induction of ischemia
  size of the area at risk relative to the area of the left ventricle: did not have an effect
[2]; 1 mg/kg IV 30 minutes before induction of ischemia, rabbit
  effect on infarct size in comparison to vehicle: significantly reduced infarct size; also recorded: cardioprotective activity
[2]; 1 mg/kg IV 30 minutes before ischemia, 30 minutes ischemia, 4 hours reperfusion, vehicle 59%
  infarct size (ischemic area relative to the area at risk): 39%
[3]; 1 mg/kg iv 5 minutes before reperfusion, 30 minutes ischemia, 2 hour reperfusion, Mean±SEM, vehicle 54.6±3.2% / 54.4±4.7%
  infarct size: 32.6±5.2%
[3]; 1 mg/kg iv, ovariectomized female rats
  effect on ischemia/reperfusion-induced myocardial infarction compared with vehicle: significantly less myocardial infarction; also recorded: cardioprotective activity
[4]; [5]
  effect on increase in left ventricular diastolic pressure in comparison to vehicle: significantly attenuated; also recorded: cardioprotective activity
  effect on left ventricular developed pressure in comparison to vehicle: significantly attenuated; also recorded: cardioprotective activity
[4]; 1 uM, perfusate during reperfusion phase, versus vehicle
  release of creatine kinase (CK) activity from hearts following ischemia: significantly reduced; also recorded: significant decreases; also recorded: cardioprotective activity
[4]; luM of compound, 15 minutes global ischemia, 50 minutes reperfusion, vehicle 29 mmHg
  increase in left ventricular diastolic pressure after ischemia-reperfusion: 11 mmHg
Uterus or breast
  activity in the uterus or breast: no activity
